How the values were obtained:
[1] = target: T1, M-phase inducer phosphatase 2 (Homo sapiens, UniProt P30305); test: In vitro inhibitory activity against human recombinant Cdc25B phosphatase enzyme
T1 sequence (P30305 whole entry): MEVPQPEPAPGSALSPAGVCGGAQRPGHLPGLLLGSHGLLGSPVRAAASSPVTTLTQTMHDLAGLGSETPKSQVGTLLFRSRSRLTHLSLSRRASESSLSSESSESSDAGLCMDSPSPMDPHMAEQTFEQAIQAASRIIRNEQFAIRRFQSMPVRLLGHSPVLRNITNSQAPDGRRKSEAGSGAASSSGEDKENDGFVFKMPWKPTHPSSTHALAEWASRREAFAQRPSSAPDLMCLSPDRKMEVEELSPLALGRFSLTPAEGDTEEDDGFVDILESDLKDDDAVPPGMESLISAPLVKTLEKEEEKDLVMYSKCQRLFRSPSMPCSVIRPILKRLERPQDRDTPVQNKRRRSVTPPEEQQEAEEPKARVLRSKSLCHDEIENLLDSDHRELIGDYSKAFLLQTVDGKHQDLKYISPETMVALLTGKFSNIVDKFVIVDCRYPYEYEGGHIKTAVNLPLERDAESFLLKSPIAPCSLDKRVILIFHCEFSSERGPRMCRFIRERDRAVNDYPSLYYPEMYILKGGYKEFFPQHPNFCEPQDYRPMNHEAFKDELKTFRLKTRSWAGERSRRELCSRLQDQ

[2] = target: T1, M-phase inducer phosphatase 2; test: Inhibitory activity against human recombinant Cdc25B phosphatase enzyme
[3] = target: T2, Tyrosine-protein phosphatase non-receptor type 1 (Homo sapiens, UniProt P18031); test: In vitro inhibitory activity against human recombinant PTP1B phosphatase enzyme
T2 sequence (P18031 whole entry): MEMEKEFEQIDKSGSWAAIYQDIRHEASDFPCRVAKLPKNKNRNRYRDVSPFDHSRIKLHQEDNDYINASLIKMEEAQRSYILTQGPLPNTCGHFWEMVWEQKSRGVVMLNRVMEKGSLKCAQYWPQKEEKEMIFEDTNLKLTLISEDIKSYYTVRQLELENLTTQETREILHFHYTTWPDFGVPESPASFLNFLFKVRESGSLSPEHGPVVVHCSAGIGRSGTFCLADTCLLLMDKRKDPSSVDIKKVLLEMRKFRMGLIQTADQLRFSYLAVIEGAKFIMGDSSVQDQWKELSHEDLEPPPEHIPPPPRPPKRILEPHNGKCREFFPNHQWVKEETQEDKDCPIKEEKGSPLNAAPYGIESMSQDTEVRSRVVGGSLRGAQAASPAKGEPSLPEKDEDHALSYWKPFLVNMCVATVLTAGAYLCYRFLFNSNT

[4] = target: T3, Dual specificity protein phosphatase 3 (Homo sapiens, UniProt P51452); test: In vitro inhibitory activity against human recombinant VHR phosphatase enzyme
[5] = target: T1, M-phase inducer phosphatase 2; test: In vitro inhibitory activity against human recombinant Cell division cycle 25B
[6] = target: T2, Tyrosine-protein phosphatase non-receptor type 1; test: In vitro inhibitory activity against human recombinant Protein-tyrosine phosphatase 1B
[7] = target: T3, Dual specificity protein phosphatase 3; test: In vitro inhibitory activity against human recombinant Dual specificity protein phosphatase 3 enzyme

T3 sequence (P51452 whole entry): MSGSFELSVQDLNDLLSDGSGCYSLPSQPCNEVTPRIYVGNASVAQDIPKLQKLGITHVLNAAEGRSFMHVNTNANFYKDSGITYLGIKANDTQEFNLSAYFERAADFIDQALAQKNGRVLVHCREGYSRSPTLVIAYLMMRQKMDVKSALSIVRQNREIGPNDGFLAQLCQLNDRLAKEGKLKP

IC50 [1] [µM] | Ki [2] [µM] | IC50 [3] [µM] | IC50 [4] [µM] | IC50 [5] [µM] | IC50 [6] [µM] | IC50 [7] [µM] | SMILES
22 | 36 | 45 | 30 |  |  |  | O=S(=O)(/C=C/c1ccc2ccccc2c1)Nc1nc(-c2ccccc2)c(-c2ccccc2)s1
25 |  | 29 | 31 |  |  |  | CCCc1sc(NS(=O)(=O)/C=C/c2ccc(F)c(F)c2)nc1-c1ccc(C(F)(F)F)cc1
> 100 |  | > 100 | 57 |  |  |  | CCCc1sc(NS(=O)(=O)/C=C/c2ccc3ccccc3c2)nc1-c1ccc(-c2ccccc2)cc1
76 |  | 58 | 32 |  |  |  | N#Cc1ccc(/C=C/S(=O)(=O)Nc2nc(-c3ccccc3)c(-c3ccccc3)s2)cc1
72 |  | 85 | 33 |  |  |  | O=S(=O)(/C=C/c1ccc(F)c(F)c1)Nc1nc(-c2ccccc2)c(-c2ccccc2)s1
> 100 |  | > 100 | > 100 |  |  |  | O=S(=O)(/C=C/c1ccco1)Nc1nc(-c2ccccc2)c(-c2ccccc2)s1
89 |  | > 100 | > 100 |  |  |  | O=S(=O)(/C=C/c1ccccc1Cl)Nc1nc(-c2ccc(Cl)cc2)cs1
> 100 |  | > 100 | > 100 |  |  |  | Cc1sc(NS(=O)(=O)/C=C/c2ccccc2Cl)nc1-c1ccc(Cl)cc1
14 |  | 10 | 25 |  |  |  | CCCc1sc(NS(=O)(=O)/C=C/c2ccccc2Cl)nc1-c1ccc(C(F)(F)F)cc1
> 100 |  | > 100 | > 100 |  |  |  | CCCCCCCCCCc1sc(NS(=O)(=O)/C=C/c2ccccc2Cl)nc1-c1ccccc1
58 |  | > 100 | 39 |  |  |  | CCCCc1ccc(/C=C/S(=O)(=O)Nc2nc(-c3ccccc3)c(-c3ccccc3)s2)cc1
88 |  | 83 | 50 |  |  |  | CCc1sc(NS(=O)(=O)/C=C/c2ccc([N+](=O)[O-])cc2)nc1-c1ccccc1
70 |  | 90 | 34 |  |  |  | O=S(=O)(/C=C/c1ccc(-c2ccccc2)cc1)Nc1nc(-c2ccccc2)c(-c2ccccc2)s1
> 100 |  | > 100 | > 100 |  |  |  | CCc1sc(NS(=O)(=O)/C=C/c2ccc(S(C)(=O)=O)cc2)nc1-c1ccccc1
> 100 |  | > 100 | > 100 |  |  |  | CCc1sc(NS(=O)(=O)/C=C/c2ccccc2Cl)nc1-c1ccccc1
46 |  | 58 | 21 |  |  |  | CCCc1sc(NS(=O)(=O)/C=C/c2ccc(C)cc2)nc1-c1ccc(-c2ccccc2)cc1
33 |  | 49 | 24 |  |  |  | CCCCCCCCC/C=C/S(=O)(=O)Nc1nc(-c2ccccc2)c(-c2ccccc2)s1
26 |  | 38 | 40 |  |  |  | O=S(=O)(/C=C/c1ccccc1Cl)Nc1nc(-c2ccccc2)c(-c2ccccc2)s1

IC50 [1] [µM] | Ki [2] [µM] | IC50 [3] [µM] | IC50 [4] [µM] | IC50 [5] [µM] | IC50 [6] [µM] | IC50 [7] [µM] | SMILES
26 |  | 59 | 20 |  |  |  | COC(=O)c1ccc(/C=C/S(=O)(=O)Nc2nc(-c3ccccc3)c(-c3ccccc3)s2)cc1
34 |  | 36 | 25 |  |  |  | O=S(=O)(/C=C/c1ccc(C(F)(F)F)cc1)Nc1nc(-c2ccccc2)c(-c2ccccc2)s1
20 |  | 20 | 31 |  |  |  | CCCc1sc(NS(=O)(=O)/C=C/c2ccc(C)cc2)nc1-c1ccc(C(F)(F)F)cc1
33 |  | 51 | 43 |  |  |  | Cc1sc(NS(=O)(=O)/C=C/c2ccc(F)c(F)c2)nc1-c1ccc(Cl)cc1
80 |  | > 100 | 54 |  |  |  | CCCCc1ccc(/C=C/S(=O)(=O)Nc2nc(-c3ccc(-c4ccccc4)cc3)c(CCC)s2)cc1
54 |  | 58 | 47 |  |  |  | O=[N+]([O-])c1ccc(/C=C/S(=O)(=O)Nc2nc(-c3ccccc3)c(-c3ccccc3)s2)cc1
92 |  | > 100 | 42 |  |  |  | CCCc1sc(NS(=O)(=O)/C=C/c2ccc(C(F)(F)F)cc2)nc1-c1ccc(-c2ccccc2)cc1
> 100 |  | > 100 | > 100 |  |  |  | Cc1ccc(/C=C/S(=O)(=O)Nc2nc(-c3ccccc3)c(-c3ccccc3)s2)cc1
69 |  | 98 | 34 |  |  |  | CCCc1sc(NS(=O)(=O)/C=C/c2ccc3ccccc3c2)nc1-c1ccc2ccccc2c1
> 100 |  | > 100 | > 100 |  |  |  | COc1ccc(/C=C/S(=O)(=O)Nc2nc(-c3ccccc3)c(-c3ccccc3)s2)cc1OC
89 |  | > 100 | 32 |  |  |  | CCc1sc(NS(=O)(=O)/C=C/c2ccc3ccccc3c2)nc1-c1ccccc1
 |  |  |  | 40 | 77 | 22 | CCCc1sc(NS(=O)(=O)/C=C/c2ccc(F)c(F)c2)nc1-c1ccc(-c2ccccc2)cc1
34 |  | 32 | 48 |  |  |  | CCCc1sc(NS(=O)(=O)/C=C/c2ccc(C)cc2)nc1-c1ccc(Cl)cc1
38 |  | 35 | 27 |  |  |  | CCCc1sc(NS(=O)(=O)/C=C/c2ccc(-c3ccccc3)cc2)nc1-c1ccc(Cl)cc1
> 100 |  | > 100 | 82 |  |  |  | CCCc1sc(NS(=O)(=O)/C=C/c2ccccc2Cl)nc1-c1ccc(-c2ccccc2)cc1
26 | 4.6 | 24 | 32 |  |  |  | CCCc1sc(NS(=O)(=O)/C=C/c2ccccc2Cl)nc1-c1ccc(Cl)cc1
21 |  | 20 | 20 |  |  |  | CCCc1sc(NS(=O)(=O)/C=C/c2ccc(F)c(F)c2)nc1-c1ccc(Cl)cc1

From ChEMBL document CHEMBL1134159, “Sulfonylated aminothiazoles as new small molecule inhibitors of protein phosphatases” (Bioorg Med Chem Lett, 2001)
